Values of other authors in patent US20230109016A1, “IN-VITRO DIAGNOSIS OF HISTAMINE INTOLERANCE SYNDROME” (IMMUNDIAGNOSTIK AG, priority 2020, published 2023).

Molecular target: T1, DAO in serum (Homo sapiens, UniProt P19801)
T1 construct: host or cells: serum
T1 sequence (P19801 20-751): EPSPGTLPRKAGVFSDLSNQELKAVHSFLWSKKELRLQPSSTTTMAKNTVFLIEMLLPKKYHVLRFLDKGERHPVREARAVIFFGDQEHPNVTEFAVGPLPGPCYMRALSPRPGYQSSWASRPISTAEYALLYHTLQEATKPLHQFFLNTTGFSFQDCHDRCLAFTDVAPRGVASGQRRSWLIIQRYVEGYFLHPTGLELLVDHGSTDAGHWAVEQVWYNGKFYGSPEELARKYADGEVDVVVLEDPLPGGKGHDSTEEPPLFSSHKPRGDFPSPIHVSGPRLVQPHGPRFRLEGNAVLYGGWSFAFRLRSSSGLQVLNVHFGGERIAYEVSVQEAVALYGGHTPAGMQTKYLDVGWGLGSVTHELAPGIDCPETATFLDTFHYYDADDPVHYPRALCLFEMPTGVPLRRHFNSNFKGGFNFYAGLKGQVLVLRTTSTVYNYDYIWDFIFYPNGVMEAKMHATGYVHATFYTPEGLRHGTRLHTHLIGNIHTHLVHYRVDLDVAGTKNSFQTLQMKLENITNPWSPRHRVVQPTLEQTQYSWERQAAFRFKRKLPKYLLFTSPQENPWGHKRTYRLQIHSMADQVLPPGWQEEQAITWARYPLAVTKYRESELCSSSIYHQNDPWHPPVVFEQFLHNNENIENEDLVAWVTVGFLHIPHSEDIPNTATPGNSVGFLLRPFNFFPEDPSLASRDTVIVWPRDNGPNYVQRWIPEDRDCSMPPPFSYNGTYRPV
Settings: not given
In the case of `CN1CC[C@]23c4c5ccc(O)c4O[C@H]2[C@@H](O)C=C[C@H]3[C@H]1C5` [morphine], the “effect on the activity of DAO in serum” value is given as “inhibited”.
In the case of `CCOC(=O)C1(c2ccccc2)CCN(C)CC1` [pethidine], the “effect on the activity of DAO in serum” value is given as “inhibited”.
For `CCCC(C)C1(CC)C(=O)NC(=S)NC1=O` (centres unmarked) [thiopental], the “effect on the activity of DAO in serum” value is given as “inhibited”.

Same assay, conditions: stated as known
For `COc1cc2c3cc1Oc1cc(ccc1O)C[C@@H]1c4c(cc(OC)c(O)c4Oc4ccc(cc4)C[C@@H]3N(C)CC2)CC[N+]1(C)C` [D-tubocurarine], the “effect on the activity of DAO in serum” value is listed as “inhibited”.
For `CC(=O)N[C@@H](CS)C(=O)O` [acetylcysteine], the “effect on the activity of DAO in serum” value is given as “inhibited”.
For `CC(=O)Oc1ccccc1C(=O)O` [acetylsalicylic acid], the “effect on the activity of DAO in serum” value is given as “inhibited”.
In the case of `C=CC[N@@+]12CC[C@@]34c5ccccc5N5/C=C6/[C@H]7C[C@H]8[C@@]9(CC[N@@+]8(CC=C)C/C7=C/CO)c7ccccc7N(/C=C(/[C@@H](C[C@@H]31)/C(=C\CO)C2)[C@H]54)[C@@H]69` [alcuronium], the “effect on the activity of DAO in serum” value is listed as “inhibited”.
In the case of `C=CCc1ccccc1OCC(O)CNC(C)C` (centres unmarked) [alprenolol], the “effect on the activity of DAO in serum” value is listed as “inhibited”.
In the case of `Nc1c(Br)cc(Br)cc1CN[C@H]1CC[C@H](O)CC1` [ambroxol], the “effect on the activity of DAO in serum” value is listed as “inhibited”.
For `N=C(N)NC(=O)c1nc(Cl)c(N)nc1N` [amiloride], the “effect on the activity of DAO in serum” value is given as “inhibited”.
For `Cn1c(=O)c2[nH]cnc2n(C)c1=O` [aminophylline], the “effect on the activity of DAO in serum” value is listed as “inhibited”.
For `CN(C)CCC=C1c2ccccc2CCc2ccccc21` [amitriptyline], the “effect on the activity of DAO in serum” value is given as “inhibited”.
For `CN(C)CCn1nnnc1SCC1=C(C(=O)O)N2C(=O)[C@@H](NC(=O)Cc3csc(N)n3)[C@H]2SC1` [cefotiam], the “effect on the activity of DAO in serum” value is given as “inhibited”.
For `CO/N=C(\C(=O)N[C@@H]1C(=O)N2C(C(=O)O)=C(COC(N)=O)CS[C@H]12)c1ccco1` [cefuroxime], the “effect on the activity of DAO in serum” value is given as “inhibited”.
For `CCN(CC)CCCC(C)Nc1ccnc2cc(Cl)ccc12` (centres unmarked) [chloroquine], the “effect on the activity of DAO in serum” value is given as “inhibited”.
In the case of `CN/C(=N/CCSCc1nc[nH]c1C)NC#N` [cimetidine], the “effect on the activity of DAO in serum” value is listed as “inhibited”.
In the case of `O=C(O)[C@H]1/C(=C/CO)O[C@@H]2CC(=O)N21` [clavulanic acid], the “effect on the activity of DAO in serum” value is given as “inhibited”.
For `O=P1(N(CCCl)CCCl)NCCCO1` (centres unmarked) [cyclophosphamide], the “effect on the activity of DAO in serum” value is given as “inhibited”.
In the case of `N/N=c1\[nH][nH]/c(=N\N)c2ccccc12` [dihydralazin], the “effect on the activity of DAO in serum” value is given as “inhibited”.
In the case of `CC(CCc1ccc(O)cc1)NCCc1ccc(O)c(O)c1` (centres unmarked) [dobutamine], the “effect on the activity of DAO in serum” value is given as “inhibited”.
In the case of `NNC(=O)c1ccncc1` [isoniazid], the “effect on the activity of DAO in serum” value is listed as “inhibited”.
In the case of `Cc1c(N(C)CS(=O)(=O)O)c(=O)n(-c2ccccc2)n1C` [metamizole], the “effect on the activity of DAO in serum” value is given as “inhibited”.
For `CCN(CC)CCNC(=O)c1cc(Cl)c(N)cc1OC` [metoclopramide], the “effect on the activity of DAO in serum” value is given as “inhibited”.
For `CC(=O)O[C@H]1C[C@@H]2CC[C@@H]3[C@H](CC[C@@]4(C)[C@H]3C[C@H]([N+]3(C)CCCCC3)[C@@H]4OC(C)=O)[C@@]2(C)C[C@@H]1[N+]1(C)CCCCC1` [pancuronium], the “effect on the activity of DAO in serum” value is given as “inhibited”.
In the case of `N=C(N)c1ccc(OCCCCCOc2ccc(C(=N)N)cc2)cc1` [pentamidin], the “effect on the activity of DAO in serum” value is given as “inhibited”.
For `CCCNC(C)C(=O)Nc1ccccc1C` (centres unmarked) [prilocaine], the “effect on the activity of DAO in serum” value is listed as “inhibited”.

System: DAO
Settings: within 30 minutes of heparin administration
In the case of heparin, the “DAO levels in humans” value is listed as “increase sharply”.

Molecular target: T2, DAO (Homo sapiens, UniProt P19801)
T2 sequence (P19801 20-751): T1 sequence (P19801 20-751)
Settings: presence of heparin in experiments with cell culture
For heparin, the “impact on the DAO level or its activity” value is given as “no impact”.

Molecular target: T2, DAO
Settings: 14C-putrescine 1 micromole to 5 millimole
In the case of `N=C(N)NN` [alpha-aminoguanidine], the “sensitivity of serum DAO (high affinity enzyme) to inhibitor” value is given as “sensitive”.

System: MAO
Settings: 14C-putrescine 1 micromole to 5 millimole
In the case of `C#CCN(C)[C@H](C)Cc1ccccc1` [selegiline], the “sensitivity of serum MAO (lower affinity enzyme) to inhibitor” value is listed as “sensitive”.

Molecular target: recombinant human kidney DAO (Homo sapiens, UniProt P19801)
Settings: read-out: Km (Michaelis constant); isolated recombinant human kidney DAO expressed in Drosophila cells (Elmore et al. 2002)
In the case of `NCCc1c[nH]cn1` [histamine, 2-(4-imidazolyl)-ethylamine], the Km is listed as ~2.8 µM.
For `NCCCCN` [putrescine, 1,4-diaminobutane], the Km is given as ~20 µM.

Molecular target: Human serum DAO (Homo sapiens, UniProt P19801)
Settings: 100 micromolar histamine in the assay
For `NCCc1c[nH]cn1` [histamine, 2-(4-imidazolyl)-ethylamine], the “inhibition of human serum DAO” value is listed as “partly inhibited”.

Same assay, conditions: histamine concentration of 500 micromoles (U.S. Pat. No. 8,003,343)
In the case of `NCCc1c[nH]cn1` [histamine, 2-(4-imidazolyl)-ethylamine], the “inhibition of human DAO activity” value is given as “about 60%”.

System: not given
Settings: 37° C.
For `NCCc1c[nH]cn1` [histamine, 2-(4-imidazolyl)-ethylamine], the “apparent half-life in serum” value is listed as 0.033 to 4 h.
